From ChEMBL document CHEMBL3865816, “Design, synthesis and biological evaluation of novel azaspiro analogs of linezolid as antibacterial and antitubercular agents” (Eur J Med Chem, 2016)
Converted amounts (≈) assume the structure as drawn.

What was measured:
Format in all cases: functional
Staphylococcus aureus [1] = test: Antibacterial activity against Staphylococcus aureus NCIM 2079 at 30 ug/ml measured after 12 hrs by spectrophotometric method; details: NCIM 2079, 12 h
[2] = test system: Mycobacterium tuberculosis; test: Antitubercular activity against dormant stage Mycobacterium tuberculosis H37Ra at 3 ug/ml measured after 12 days by XTT assay; details: 288 h
Escherichia coli [3] = test: Antibacterial activity against Escherichia coli NCIM 2688 at 10 ug/ml measured after 8 hrs by spectrophotometric method; details: NCIM 2688, 8 h
[4] = test system: Mycobacterium tuberculosis; test: Antitubercular activity against dormant stage Mycobacterium tuberculosis H37Ra at 10 ug/ml measured after 12 days by XTT assay; details: 288 h
Escherichia coli [5] = test: Antibacterial activity against Escherichia coli NCIM 2688 at 3 ug/ml measured after 8 hrs by spectrophotometric method; details: NCIM 2688, 8 h
Pseudomonas aeruginosa [6] = test: Antibacterial activity against Pseudomonas aeruginosa NCIM 2036 at 10 ug/ml measured after 8 hrs by spectrophotometric method; details: NCIM 2036, 8 h
Pseudomonas aeruginosa [7] = test: Antibacterial activity against Pseudomonas aeruginosa NCIM 2036 at 30 ug/ml measured after 8 hrs by spectrophotometric method; details: NCIM 2036, 8 h
Escherichia coli [8] = test: Antibacterial activity against Escherichia coli NCIM 2688 at 30 ug/ml measured after 8 hrs by spectrophotometric method; details: NCIM 2688, 8 h
[9] = test system: Mycobacterium tuberculosis; test: Antitubercular activity against active stage Mycobacterium tuberculosis H37Ra measured after 8 days by XTT assay; details: 192 h
Escherichia coli [10] = test: Antibacterial activity against Escherichia coli NCIM 2688 measured after 8 hrs by spectrophotometric method; details: NCIM 2688, 8 h
[11] = test system: Mycobacterium tuberculosis; test: Antitubercular activity against dormant stage Mycobacterium tuberculosis H37Ra measured after 12 days by XTT assay; details: 288 h
Pseudomonas aeruginosa [12] = test: Antibacterial activity against Pseudomonas aeruginosa NCIM 2036 measured after 8 hrs by spectrophotometric method; details: NCIM 2036, 8 h
Bacillus subtilis [13] = test: Antibacterial activity against Bacillus subtilis NCIM 2010 at 30 ug/ml measured after 12 hrs by spectrophotometric method; details: NCIM 2010, 12 h
Bacillus subtilis [14] = test: Antibacterial activity against Bacillus subtilis NCIM 2010 at 3 ug/ml measured after 12 hrs by spectrophotometric method; details: NCIM 2010, 12 h
Bacillus subtilis [15] = test: Antibacterial activity against Bacillus subtilis NCIM 2010 at 10 ug/ml measured after 12 hrs by spectrophotometric method; details: NCIM 2010, 12 h
Bacillus subtilis [16] = test: Antibacterial activity against Bacillus subtilis NCIM 2010 measured after 12 hrs by spectrophotometric method; details: NCIM 2010, 12 h
Staphylococcus aureus [17] = test: Antibacterial activity against Staphylococcus aureus NCIM 2079 at 10 ug/ml measured after 12 hrs by spectrophotometric method; details: NCIM 2079, 12 h
Staphylococcus aureus [18] = test: Antibacterial activity against Staphylococcus aureus NCIM 2079 measured after 12 hrs by spectrophotometric method; details: NCIM 2079, 12 h
Pseudomonas aeruginosa [19] = test: Antibacterial activity against Pseudomonas aeruginosa NCIM 2036 at 3 ug/ml measured after 8 hrs by spectrophotometric method; details: NCIM 2036, 8 h
Staphylococcus aureus [20] = test: Antibacterial activity against Staphylococcus aureus NCIM 2079 at 3 ug/ml measured after 12 hrs by spectrophotometric method; details: NCIM 2079, 12 h
[21] = test system: Mycobacterium tuberculosis; test: Antitubercular activity against dormant stage Mycobacterium tuberculosis H37Ra at 30 ug/ml measured after 12 days by XTT assay; details: 288 h

Row | Structure (SMILES) | inhibition at 30 µg/mL (Staphylococcus aureus [1]) [%] | inhibition at 3 µg/mL [2] [%] | inhibition at 10 µg/mL (Escherichia coli [3]) [%] | inhibition at 10 µg/mL [4] [%] | inhibition at 3 µg/mL (Escherichia coli [5]) [%] | inhibition at 10 µg/mL (Pseudomonas aeruginosa [6]) [%] | inhibition at 30 µg/mL (Pseudomonas aeruginosa [7]) [%] | inhibition at 30 µg/mL (Escherichia coli [8]) [%] | IC50 [9] [µg/mL] | MIC [9] [µg/mL] | IC50 (Escherichia coli [10]) [µg/mL] | MIC (Escherichia coli [10]) [µg/mL] | IC50 [11] [µg/mL] | MIC [11] [µg/mL] | IC50 (Pseudomonas aeruginosa [12]) [µg/mL] | MIC (Pseudomonas aeruginosa [12]) [µg/mL] | inhibition at 30 µg/mL (Bacillus subtilis [13]) [%] | inhibition at 3 µg/mL (Bacillus subtilis [14]) [%] | inhibition at 10 µg/mL (Bacillus subtilis [15]) [%] | IC50 (Bacillus subtilis [16]) [µg/mL] | other results
1 | CC(=O)NC[C@H]1CN(c2ccc(N3CCOCC3)c(F)c2)C(=O)O1 [LINEZOLID] | 99.1 | 84 | 99.8 | 96.6 | 99.3 | 99 | 99.9 | 100 | 0.8 (≈ 2.37 µM) | 1.31 (≈ 3.88 µM) | 0.49 (≈ 1.45 µM) | 1.15 (≈ 3.41 µM) | 0.71 (≈ 2.1 µM) | 1.25 (≈ 3.71 µM) | 0.49 (≈ 1.45 µM) | 1.31 (≈ 3.88 µM) | 99.8 | 98.9 | 99.4 | 0.64 (≈ 1.9 µM) | MIC (Bacillus subtilis [16]): 1.8 µg/mL (≈ 5.34 µM); inhibition at 10 µg/mL (Staphylococcus aureus [17]): 99.5%; IC50 (Staphylococcus aureus [18]): 0.42 µg/mL (≈ 1.24 µM); MIC (Staphylococcus aureus [18]): 1.13 µg/mL (≈ 3.35 µM); inhibition at 3 µg/mL (Pseudomonas aeruginosa [19]): 99.2%; inhibition at 3 µg/mL (Staphylococcus aureus [20]): 99.5%; inhibition at 30 µg/mL [21]: 95.5%
2 | O=C1O[C@@H](CNC(=S)Nc2ccccc2F)CN1c1ccc(N2CC3(COC3)C2)c(F)c1 | 99.3 | 25.1 | 42.8 | 57.4 | 25 | 87.4 | 96 | 51.9 | 16.3 (≈ 35.5 µM) | 41.1 (≈ 89.3 µM) | > 100 | > 100 | 22.8 (≈ 49.6 µM) | 41.6 (≈ 90.4 µM) | 0.98 (≈ 2.13 µM) | 15.9 (≈ 34.5 µM) | 101 | 81 | 96.6 | 1.31 (≈ 2.84 µM) | MIC (Bacillus subtilis [16]): 5.18 µg/mL (≈ 11.2 µM); inhibition at 10 µg/mL (Staphylococcus aureus [17]): 95.7%; IC50 (Staphylococcus aureus [18]): 0.6 µg/mL (≈ 1.3 µM); MIC (Staphylococcus aureus [18]): 5.76 µg/mL (≈ 12.5 µM); inhibition at 3 µg/mL (Pseudomonas aeruginosa [19]): 77.8%; inhibition at 3 µg/mL (Staphylococcus aureus [20]): 85.9%; inhibition at 30 µg/mL [21]: 87.6%
3 | CC(=O)NC[C@H]1CN(c2ccc(C3=C[C@H]4CC[C@@H](C3)N4C(=O)OC(C)(C)C)c(F)c2)C(=O)O1 | 99.1 | 34.8 | 94.4 | 79.6 | 89.2 | 88.3 | 93.9 | 98.7 | 12.3 (≈ 26.8 µM) | 21.4 (≈ 46.6 µM) | 0.57 (≈ 1.24 µM) | 3.66 (≈ 7.96 µM) | 10.8 (≈ 23.6 µM) | 20.5 (≈ 44.6 µM) | 0.67 (≈ 1.46 µM) | 15.1 (≈ 32.8 µM) | 99.1 | 85.7 | 97.3 | 0.55 (≈ 1.2 µM) | MIC (Bacillus subtilis [16]): 5.67 µg/mL (≈ 12.3 µM); inhibition at 10 µg/mL (Staphylococcus aureus [17]): 97.9%; IC50 (Staphylococcus aureus [18]): 0.74 µg/mL (≈ 1.61 µM); MIC (Staphylococcus aureus [18]): 2.95 µg/mL (≈ 6.42 µM); inhibition at 3 µg/mL (Pseudomonas aeruginosa [19]): 83.8%; inhibition at 3 µg/mL (Staphylococcus aureus [20]): 90.5%; inhibition at 30 µg/mL [21]: 94.2%
4 | NC[C@H]1CN(c2ccc(N3CC4(COC4)C3)c(F)c2)C(=O)O1 | 98.9 | 15.2 | 96.8 | 75.2 | 88 | 53.7 | 56.9 | 99.2 | 2.8 (≈ 9.11 µM) | 18.3 (≈ 59.4 µM) | 0.57 (≈ 1.85 µM) | 4.05 (≈ 13.2 µM) | 3.46 (≈ 11.3 µM) | 11.3 (≈ 36.9 µM) | > 100 | > 100 | 48.8 | 36.4 | 43.3 | > 100 | MIC (Bacillus subtilis [16]): > 100 µg/mL; inhibition at 10 µg/mL (Staphylococcus aureus [17]): 94.3%; IC50 (Staphylococcus aureus [18]): 0.84 to 0.843 µg/mL (≈ 2.73 to 2.74 µM); MIC (Staphylococcus aureus [18]): 3.38 µg/mL (≈ 11 µM); inhibition at 3 µg/mL (Pseudomonas aeruginosa [19]): 49.2%; inhibition at 3 µg/mL (Staphylococcus aureus [20]): 86.5%; inhibition at 30 µg/mL [21]: 90.9%
